According to PubChem BioAssay (NCI):
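Method: 48-hour compound exposure of cells in 96-well plates, five concentrations, linear interpolation of endpoints. At the TGI there is no net growth.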

Experiments:
Assay in all cases: NCI tumour cell line growth inhibition, 48 h
LXFL 529 NSCLC = system: LXFL 529 NSCLC
DLD-1 colon = system: DLD-1 colon
RXF-631 renal = system: RXF-631 renal
SNB-78 CNS = system: SNB-78 CNS
HOP-18 NSCLC = system: HOP-18 NSCLC
T-47D breast = system: T-47D breast
BT-549 breast = system: BT-549 breast
MDA-N = system: MDA-N

SMILES | TGI (LXFL 529 NSCLC) | TGI (DLD-1 colon) | TGI (RXF-631 renal) | TGI (SNB-78 CNS) | TGI (HOP-18 NSCLC) | TGI (T-47D breast) | TGI (BT-549 breast) | TGI (MDA-N)
CN(C(=O)C12C3C4C1C1C2C3C41C(=O)C(C)(C)C)C(C)(C)C (centres undefined) | > 100 µM | > 100 µM | > 100 µM | > 100 µM | – | – | – | –
CCOC(=O)NC(=O)c1cn(C2OC(COC(=O)CCCCCCCCC(=O)OCC3OC(n4cc(C(=O)NC(=O)OCC)c(=O)[nH]c4=O)C(O)C3O)C(O)C2O)c(=O)[nH]c1=O (centres undefined) | > 100 µM | > 100 µM | > 100 µM | > 100 µM | > 100 µM | – | – | –
N#C/C(=C/c1ccsc1)C(=O)c1ccccc1 | > 100 µM | > 100 µM | – | > 100 µM | > 100 µM | – | – | –
CN(C)CCC(=O)N1C/C(=C/c2ccccc2)C(=O)/C(=C\c2ccccc2)C1 | 5.51 µM | 3.25 µM | 10.6 µM | 16.1 µM | 10.9 µM | 17.7 µM | 2.81 µM | 3.71 µM
COc1ccc(OC)c(NC(=O)C(=O)C(C(C)=O)c2nc3ccc(Cl)cc3[nH]c2=O)c1 (centres undefined) | > 50 µM | > 50 µM | > 50 µM | > 50 µM | > 50 µM | – | – | –
COC(=O)CC(=O)C[P+](c1ccccc1)(c1ccccc1)c1ccccc1 | > 218 µM | > 218 µM | > 218 µM | – | > 218 µM | – | – | –
O=C(N/N=C/c1ccccc1O)c1cccc([N+](=O)[O-])c1 | > 100 µM | > 100 µM | – | > 100 µM | > 100 µM | – | – | –
Clc1ccc(C2N3CCCCC3[C@@H]3c4[nH]c5ccccc5c4CCN23)cc1 (some centres undefined) | > 100 µM | > 100 µM | – | > 100 µM | > 100 µM | – | – | –
CCCCN(CCCC)C(=O)C(=O)C(C#N)c1ccc(C)cc1 (centres undefined) | > 100 µM | > 100 µM | – | > 100 µM | > 100 µM | – | – | –
COc1ccc2ccc3c(c2c1)CN1CCc2cc(OC)c(OC)cc2C1C3 (centres undefined) | > 100 µM | > 100 µM | > 100 µM | > 100 µM | > 100 µM | – | – | –
Cc1ccc(S(=O)(=O)C(CC(=O)N2CCCC2)C(=O)c2ccccc2)cc1 (centres undefined) | > 100 µM | > 100 µM | > 100 µM | > 100 µM | > 100 µM | – | – | –
O=C1OCc2c1cc1ccc(O)c(OC3OC(CO)C(O)C(O)C3O)c1c2-c1ccc2c(c1)OCO2 (centres undefined) | > 100 µM | – | > 100 µM | > 100 µM | – | – | – | –
COC(=O)C1=C(C(=O)OC)C2C=CC1C1C(Cl)=C(Cl)C21 (centres undefined) | > 100 µM | > 100 µM | > 100 µM | – | > 100 µM | – | – | –
OCCC1(O)CCC(O)CC1 (centres undefined) | > 100 µM | > 100 µM | – | > 100 µM | > 100 µM | – | – | –
COC1C(CN[N+](=O)CC2OC3OC(C)(C)OC3C2OC)OC2OC(C)(C)OC21 (centres undefined) | – | > 100 µM | > 100 µM | > 100 µM | > 100 µM | – | – | –
COc1cc(C2c3cc4c(cc3C(NCC(O)CO)C3COC(=O)[C@H]23)OCO4)cc(OC)c1OC (some centres undefined) | > 100 µM | > 100 µM | – | > 100 µM | > 100 µM | – | – | –
Cc1nc2c(nc1Cl)nc(Oc1ccc(Cl)cc1)c1ccccc12 | > 100 µM | > 100 µM | > 100 µM | > 100 µM | – | – | – | –
COC(=O)C(=O)C(C(=O)C=C(C)C)C(=O)C(=O)Nc1cc(C(F)(F)F)ccc1Cl (centres undefined) | > 100 µM | > 100 µM | > 100 µM | > 100 µM | > 100 µM | – | – | –
CCOc1ccc2c(c1)[n+]([O-])c(S(=O)(=O)c1ccc(C)cc1)c(N)[n+]2[O-] | > 100 µM | > 100 µM | – | > 100 µM | > 100 µM | – | – | –
CC1(C)CC(/C=C2/OC(=O)c3ccccc32)=C(C#N)C(=O)O1 | > 100 µM | > 100 µM | > 100 µM | > 100 µM | – | – | – | –
N#CC(C(=N/O)/C(=N/O)C(C#N)c1ccc(Cl)cc1)c1ccc(Cl)cc1 (centres undefined) | > 100 µM | > 100 µM | – | > 100 µM | > 100 µM | – | – | –
CC1OC(n2cc(F)c(=O)[nH]c2=O)CCC1O (centres undefined) | > 100 µM | > 100 µM | – | > 100 µM | > 100 µM | > 100 µM | > 100 µM | > 100 µM
COc1ccc2[nH]c3c(C)c4c(c(C)c3c2c1)CN(C)CC4 | 36.1 µM | 93.7 µM | 58.4 µM | 80.6 µM | 31.3 µM | – | – | –
COC(=O)C[C@H]1CCC2(OCCO2)[C@]1(C)C(=O)OC | > 100 µM | – | > 100 µM | > 100 µM | – | – | – | –
COc1ccccc1C1C(C(=O)Nc2ccccc2)=C(C)NC(C)=C1C(=O)Nc1ccccc1 | > 100 µM | – | > 100 µM | > 100 µM | > 100 µM | – | – | –
COc1ccc2cc1Oc1ccc(cc1)CC1c3cc(c(OC)cc3CCN1C)Oc1c3c(cc4c1C(C2)N(C)CC4)OCO3 (centres undefined) | 25.6 µM | 31.5 µM | 36 µM | 30.7 µM | – | – | – | –
CC(=O)Nc1ccccc1Sc1ccccc1 | > 100 µM | – | > 100 µM | > 100 µM | > 100 µM | – | – | –
